In patent US10413593B2 (priority 2014, dated 2019):
*1 amine or outer side, *2 acyl side, *3 side chain or, on linkers, in order; H or OH if unused. Where a SMILES comes first, the peptide text is derived from it. Where no end group is shown, it is not given here. Side-chain parts run from the residue outwards. [ ]: non-standard residue; d: D form. The star is where a group is joined. C16 = palmitoyl, CCCCCCCCCCCCCCCC(=O)*; γGlu = O=C(O)[C@H](CCC(=O)[*:2])N[*:1]; X1 = O=C(C(N[*:1])C(O)c1ccccc1)[*:2]; Palmitoyl = CCCCCCCCCCCCCCCC(=O)*

Legend:
[1] = biological target: T1, human GCGR (Homo sapiens, UniProt P47871); experiment: cAMP assay in cells expressing human GCGR (HitHunter cAMP XS); type: cell-based; settings: for EC50: cAMP production, cells expressing human GCGR, assay buffer with 20% human serum, 1 hour; for hGCGR/hGLP1R (hTone): ratio of EC50 at human GCGR to EC50 at human GLP1R
T1 construct: expressed in transfected cells
T1 sequence (P47871 26-477): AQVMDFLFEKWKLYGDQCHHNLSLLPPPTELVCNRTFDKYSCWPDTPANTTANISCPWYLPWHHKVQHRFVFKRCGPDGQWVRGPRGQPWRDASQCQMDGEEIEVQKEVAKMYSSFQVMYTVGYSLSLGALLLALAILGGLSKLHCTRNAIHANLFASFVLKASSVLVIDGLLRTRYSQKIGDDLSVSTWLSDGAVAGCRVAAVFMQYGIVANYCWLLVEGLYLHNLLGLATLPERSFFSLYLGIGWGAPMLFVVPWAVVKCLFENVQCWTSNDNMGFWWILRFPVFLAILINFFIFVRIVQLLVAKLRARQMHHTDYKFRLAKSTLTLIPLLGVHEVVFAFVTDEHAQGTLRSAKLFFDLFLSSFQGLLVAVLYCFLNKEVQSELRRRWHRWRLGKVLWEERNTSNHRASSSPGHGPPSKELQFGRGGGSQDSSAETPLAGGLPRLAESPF
Method: The cAMP protocol was as follows.
(§1) Peptides were dissolved in 100% DMSO and serially diluted to generate 11 point titrations. The peptide solutions were then transferred into 384-well assay plates (150 nL/well). Assay ready frozen cells expressing human GLP-1R or human GCGR were suspended in growth media consisting of DMEM/F12 medium (GIBCO), 10% FBS (GIBCO), lx P/S (GIBCO), 800 μg/mL Geneticin (GIBCO), and 300 μg/mL Hygromycin (Invitrogen). Cells were then diluted in assay buffer consisting of PBS (GIBCO), 7.5% BSA (Perkin Elmer), 100 μM RO 20-1724 (Sigma), and 20% human serum (MP Biomedical). The cell suspensions (15 μL) were then added to the assay plates containing the peptide solutions (30,000 cells/well for human GCGR; 20,000 cells/well for GLP1R). The cells were incubated for 1 hour at room temperature in the dark. Production of cAMP was determined using HitHunter™ cAMPXS kits (DiscoverX). ED buffer (20 μL) was then added to each well and the plates were incubated for 1 hour at room temperature in the dark. Subsequently, EA buffer (20 μL) was added to each well, and the plates were incubated for 1-18 hours at room temperature in the dark. Luminescence was measured using an EnVision Multilabel plate reader (Perkin Elmer). EC50 values were calculated using ADA data analyzer software.

[2] = biological target: T2, human GLP-1R (Homo sapiens, UniProt P43220); experiment: cAMP assay in cells expressing human GLP-1R (HitHunter cAMP XS); type: cell-based; settings: cAMP production, assay buffer with 20% human serum, 1 hour, read-out: GLPR1 EC50 (nM) human
T2 construct: expressed in transfected cells
T2 sequence (P43220 24-463): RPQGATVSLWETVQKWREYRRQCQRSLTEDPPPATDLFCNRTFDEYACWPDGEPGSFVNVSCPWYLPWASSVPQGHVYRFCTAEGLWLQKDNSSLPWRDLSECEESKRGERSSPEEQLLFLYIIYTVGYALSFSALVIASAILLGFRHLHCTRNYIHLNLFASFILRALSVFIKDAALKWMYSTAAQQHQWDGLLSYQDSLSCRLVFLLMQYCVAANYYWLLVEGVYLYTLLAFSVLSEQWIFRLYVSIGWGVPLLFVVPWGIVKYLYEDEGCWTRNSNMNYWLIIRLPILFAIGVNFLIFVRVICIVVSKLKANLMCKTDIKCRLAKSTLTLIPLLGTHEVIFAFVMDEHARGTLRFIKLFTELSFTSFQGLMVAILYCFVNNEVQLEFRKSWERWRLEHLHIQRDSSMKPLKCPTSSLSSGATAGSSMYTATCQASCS
Method: The cAMP protocol was as follows.
as §1

[3] = Cumulative body weight change in DIO mice, daily s.c. dosing for nine days (Example 18, FIG. 1); type: in vivo, mice (strain C57Bl6/NTac); settings: 9 nmol/kg s.c. daily, day 9
Method: Mice were administered a vehicle control or a dose of a peptide daily for nine days. […] The peptide of SEQ ID NO: 9 was administered at doses of 9 and 25 nmol/kg. Cumulative body weight change (grams) was measured each day of the study except on day 3. Results are shown in FIG. 1 and are expressed as mean±SEM.

[4] = Second study in DIO mice: body weight change percent relative to vehicle (Example 19, FIG. 2); type: in vivo, mice (strain C57Bl6/NTac); settings: eight days
Method: In addition, the peptide of SEQ ID NO: 8 was administered at 15 nmol/kg, while the peptide of SEQ ID NOs: 10 and 11 were administered at 3 nmol/kg. Body weight was measured daily for eight days and body weight change is expressed as percent relative to vehicle (FIG. 2).

[5] = Ambient glucose in DIO mice (Example 21, FIG. 4); type: in vivo, mice (strain C57Bl6/NTac); settings: for change in ambient glucose compared to vehicle: day 9 of dosing
Method: In addition to cumulative body weight change, ambient glucose levels of the DIO mice (strain C57Bl6/NTac) were measured periodically throughout the study.

Compound	hGCGR/hGLP1R (hTone) [1]	body weight loss [3] [grams]	weight loss, percent relative to vehicle ([4]; 9 nmol/kg daily)	change in ambient glucose compared to vehicle ([5]; 9 nmol/kg)	further results
CCCCCCCCCCCCCCCC(=O)N[C@@H](CCC(=O)N[C@@H](CCC(=O)NCCCC[C@H](NC(=O)[C@H](CC(=O)O)NC(=O)[C@H](CO)NC(=O)[C@@H](NC(=O)[C@H](Cc1ccc(F)cc1)NC(=O)[C@@H](NC(=O)CNC(=O)[C@H](CCC(N)=O)NC(=O)[C@@H](CO)NC(=O)[C@@H](N)Cc1c[nH]cn1)[C@@H](C)O)[C@@H](C)O)C(=O)N[C@@H](CO)C(=O)N[C@@H](CCCCN)C(=O)N[C@@H](Cc1ccc(O)cc1)C(=O)N[C@@H](CC(C)C)C(=O)N[C@@H](CC(=O)O)C(=O)N[C@@H](CCC(=O)O)C(=O)N[C@@H](CCCNC(=N)N)C(=O)N[C@@H](C)C(=O)N[C@@H](C)C(=O)N[C@@H](CCC(N)=O)C(=O)N[C@@H](CC(=O)O)C(=O)N[C@@H](Cc1ccccc1)C(=O)N[C@H](C(=O)N[C@@H](CCC(N)=O)C(=O)N[C@@H](Cc1c[nH]c2ccccc12)C(=O)N[C@@H](CC(C)C)C(=O)N[C@@H](CC(C)C)C(=O)N[C@@H](CC(=O)O)C(=O)N[C@H](C(N)=O)[C@@H](C)O)C(C)C)C(=O)O)C(=O)O [compound 14]	0.93	–	–	–	EC50 [1]: 0.05 nM; EC50 [2]: 0.06 nM
CCCCCCCCCCCCCCCC(=O)N[C@@H](CCC(=O)NCCCC[C@H](NC(=O)[C@H](CC(=O)O)NC(=O)[C@H](CO)NC(=O)[C@@H](NC(=O)[C@H](Cc1ccccc1)NC(=O)[C@@H](NC(=O)CNC(=O)[C@H](CCC(N)=O)NC(=O)[C@@H](CO)NC(=O)[C@@H](N)Cc1c[nH]cn1)[C@@H](C)O)[C@@H](C)O)C(=O)N[C@@H](CO)C(=O)N[C@@H](CCCCN)C(=O)N[C@@H](Cc1ccc(O)cc1)C(=O)N[C@@H](CC(C)C)C(=O)N[C@@H](CC(=O)O)C(=O)N[C@@H](C)C(=O)N[C@@H](CCCNC(=N)N)C(=O)N[C@@H](C)C(=O)N[C@@H](C)C(=O)N[C@@H](CCC(N)=O)C(=O)N[C@@H](CC(=O)O)C(=O)N[C@@H](Cc1ccccc1)C(=O)N[C@H](C(=O)N[C@@H](CCC(N)=O)C(=O)N[C@@H](Cc1c[nH]c2ccccc12)C(=O)N[C@@H](CC(C)C)C(=O)N[C@@H](CC(C)C)C(=O)N[C@@H](CC(=O)O)C(=O)N[C@H](C(N)=O)[C@@H](C)O)C(C)C)C(=O)O [SEQ ID NO: 6]	–	10.5	approximately 20%	–	decrease in ambient glucose compared to vehicle ([5]; 9 nmol/kg, day 7 of dosing): -60 mg/dL
CCCCCCCCCCCCCCCC(=O)N[C@@H](CCC(=O)N[C@@H](CCC(=O)NCCCC[C@H](NC(=O)[C@H](CC(=O)O)NC(=O)[C@H](CO)NC(=O)[C@@H](NC(=O)[C@H](Cc1ccccc1)NC(=O)[C@@H](NC(=O)CNC(=O)[C@@H](NC(=O)C(C)(C)NC(=O)[C@@H](N)Cc1c[nH]cn1)C(C)C)[C@@H](C)O)[C@@H](C)O)C(=O)N[C@@H](CO)C(=O)N[C@@H](CCCCN)C(=O)N[C@@H](Cc1ccc(O)cc1)C(=O)N[C@@H](CC(C)C)C(=O)N[C@@H](CC(=O)O)C(=O)NC(C)(C)C(=O)N[C@@H](CCCNC(=N)N)C(=O)N[C@@H](C)C(=O)N[C@@H](C)C(=O)N[C@@H](CCC(N)=O)C(=O)N[C@@H](CC(=O)O)C(=O)N[C@@H](Cc1ccccc1)C(=O)N[C@H](C(=O)N[C@@H](CCC(N)=O)C(=O)N[C@@H](Cc1c[nH]c2ccccc12)C(=O)N[C@@H](CC(C)C)C(=O)N[C@@H](CCCC)C(=O)N[C@@H](CC(=O)O)C(=O)N[C@H](C(N)=O)[C@@H](C)O)C(C)C)C(=O)O)C(=O)O [SEQ ID NO: 9]	–	~3	approximately 5%	did not exhibit significant changes in ambient glucose	decrease in ambient glucose compared to vehicle ([5]; 25 nmol/kg, second day of dosing): -75 mg/dL
CCCCCCCCCCCCCCCC(=O)N[C@@H](CCC(=O)N[C@@H](CCC(=O)NCCCC[C@H](NC(=O)[C@H](CC(=O)O)NC(=O)[C@H](CO)NC(=O)[C@@H](NC(=O)C(NC(=O)[C@@H](NC(=O)CNC(=O)[C@H](CCC(N)=O)NC(=O)[C@@H](CO)NC(=O)[C@@H](N)Cc1c[nH]cn1)[C@@H](C)O)C(O)c1ccccc1)[C@@H](C)O)C(=O)N[C@@H](CO)C(=O)N[C@@H](CCCCN)C(=O)N[C@@H](Cc1ccc(O)cc1)C(=O)N[C@@H](CC(C)C)C(=O)N[C@@H](CC(=O)O)C(=O)N[C@@H](CCC(=O)O)C(=O)N[C@@H](CCCNC(=N)N)C(=O)N[C@@H](C)C(=O)N[C@@H](C)C(=O)N[C@@H](CCC(N)=O)C(=O)N[C@@H](CC(=O)O)C(=O)N[C@@H](Cc1ccccc1)C(=O)N[C@H](C(=O)N[C@@H](CCC(N)=O)C(=O)N[C@@H](Cc1c[nH]c2ccccc12)C(=O)N[C@@H](CC(C)C)C(=O)N[C@@H](CC(C)C)C(=O)N[C@@H](CC(=O)O)C(=O)N[C@H](C(N)=O)[C@@H](C)O)C(C)C)C(=O)O)C(=O)O (stereo partly drawn) [compound 19] (H-H[dS]QGT[X1]TSDK([γGlu-γGlu-Palmitoyl])SKYLDERAAQDFVQWLLDT-NH2; N-terminus assumed)	1.02	–	–	–	EC50 [1]: 1.04 nM; EC50 [2]: 1.02 nM
CCCCCCCCCCCCCCCC(=O)N[C@@H](CCC(=O)N[C@@H](CCC(=O)NCCCC[C@H](NC(=O)[C@H](CC(=O)O)NC(=O)[C@H](CO)NC(=O)[C@@H](NC(=O)[C@H](Cc1ccccc1)NC(=O)[C@@H](NC(=O)CNC(=O)[C@H](CCC(N)=O)NC(=O)[C@@H](CO)NC(=O)[C@@H](N)Cc1c[nH]cn1)[C@@H](C)O)[C@@H](C)O)C(=O)N[C@@H](CO)C(=O)N[C@@H](CCCCN)C(=O)N[C@@H](Cc1ccc(O)cc1)C(=O)N[C@@H](CC(C)C)C(=O)N[C@@H](CC(=O)O)C(=O)N[C@H](C(=O)N[C@@H](CCCNC(=N)N)C(=O)N[C@@H](C)C(=O)N[C@@H](C)C(=O)N[C@@H](CCC(N)=O)C(=O)N[C@@H](CC(=O)O)C(=O)N[C@@H](Cc1ccccc1)C(=O)N[C@H](C(=O)N[C@@H](CCC(N)=O)C(=O)N[C@@H](Cc1c[nH]c2ccccc12)C(=O)N[C@@H](CC(C)C)C(=O)N[C@@H](CC(C)C)C(=O)N[C@@H](CC(=O)O)C(=O)N[C@H](C(N)=O)[C@@H](C)O)C(C)C)C(C)C)C(=O)O)C(=O)O [SEQ ID NO: 8]	–	8	approximately 17%	-72 mg/dL	weight loss, percent relative to vehicle ([4]; 15 nmol/kg daily): approximately 25%
HsQGTFTSDK(γEγEC16)SKYLDVRRAQDFVQWLLDT-NH2 (H[dS]QGTFTSDK([γGlu-γGlu-C16])SKYLDVRRAQDFVQWLLDT-NH2; N-terminus assumed; SMILES CCCCCCCCCCCCCCCC(=O)N[C@@H](CCC(=O)N[C@@H](CCC(=O)NCCCC[C@H](NC(=O)[C@H](CC(=O)O)NC(=O)[C@H](CO)NC(=O)[C@@H](NC(=O)[C@H](Cc1ccccc1)NC(=O)[C@@H](NC(=O)CNC(=O)[C@H](CCC(N)=O)NC(=O)[C@@H](CO)NC(=O)[C@@H](N)Cc1c[nH]cn1)[C@@H](C)O)[C@@H](C)O)C(=O)N[C@@H](CO)C(=O)N[C@@H](CCCCN)C(=O)N[C@@H](Cc1ccc(O)cc1)C(=O)N[C@@H](CC(C)C)C(=O)N[C@@H](CC(=O)O)C(=O)N[C@H](C(=O)N[C@@H](CCCNC(=N)N)C(=O)N[C@@H](CCCNC(=N)N)C(=O)N[C@@H](C)C(=O)N[C@@H](CCC(N)=O)C(=O)N[C@@H](CC(=O)O)C(=O)N[C@@H](Cc1ccccc1)C(=O)N[C@H](C(=O)N[C@@H](CCC(N)=O)C(=O)N[C@@H](Cc1c[nH]c2ccccc12)C(=O)N[C@@H](CC(C)C)C(=O)N[C@@H](CC(C)C)C(=O)N[C@@H](CC(=O)O)C(=O)N[C@H](C(N)=O)[C@@H](C)O)C(C)C)C(C)C)C(=O)O)C(=O)O) [SEQ ID NO: 7]	–	~3	approximately 5%	did not exhibit significant changes in ambient glucose	–
CCCCCCCCCCCCCCCC(=O)N[C@@H](CCC(=O)N[C@@H](CCC(=O)NCCCC[C@H](NC(=O)[C@H](CC(=O)O)NC(=O)[C@H](CO)NC(=O)[C@@H](NC(=O)[C@H](Cc1ccccc1)NC(=O)[C@@H](NC(=O)CNC(=O)[C@H](CCC(N)=O)NC(=O)[C@H](C)NC(=O)[C@H](Cc1c[nH]cn1)NC(C)=O)[C@@H](C)O)[C@@H](C)O)C(=O)N[C@@H](CO)C(=O)N[C@@H](CCCCN)C(=O)N[C@@H](Cc1ccc(O)cc1)C(=O)N[C@@H](CC(C)C)C(=O)N[C@@H](CC(=O)O)C(=O)N[C@@H](CCC(=O)O)C(=O)N[C@@H](CCCNC(=N)N)C(=O)N[C@@H](C)C(=O)N[C@@H](C)C(=O)N[C@@H](CCC(N)=O)C(=O)N[C@@H](CC(=O)O)C(=O)N[C@@H](Cc1ccccc1)C(=O)N[C@H](C(=O)N[C@@H](CCC(N)=O)C(=O)N[C@@H](Cc1c[nH]c2ccccc12)C(=O)N[C@@H](CC(C)C)C(=O)N[C@@H](CC(C)C)C(=O)N[C@@H](CC(=O)O)C(=O)N[C@H](C(N)=O)[C@@H](C)O)C(C)C)C(=O)O)C(=O)O [compound 12]	1.00	–	–	–	–
